Experimental data reported in US11016085B2, “ZNT8 assays for drug development and pharmaceutical compositions” (THE JOHNS HOPKINS UNIVERSITY, priority 2016, dated 2021).
“Also recorded” adds a separate entry of the source.

T1: human ZnT8 W325 (W-form) (Homo sapiens, UniProt Q8IWU4, R325W)
T1 construct: The human ZnT8 cDNA insert was further subcloned into a pcDNA5/FRT/TO expression vector; made in house
T1 sequence (Q8IWU4 1-320 isoform Q8IWU4-2 R276W): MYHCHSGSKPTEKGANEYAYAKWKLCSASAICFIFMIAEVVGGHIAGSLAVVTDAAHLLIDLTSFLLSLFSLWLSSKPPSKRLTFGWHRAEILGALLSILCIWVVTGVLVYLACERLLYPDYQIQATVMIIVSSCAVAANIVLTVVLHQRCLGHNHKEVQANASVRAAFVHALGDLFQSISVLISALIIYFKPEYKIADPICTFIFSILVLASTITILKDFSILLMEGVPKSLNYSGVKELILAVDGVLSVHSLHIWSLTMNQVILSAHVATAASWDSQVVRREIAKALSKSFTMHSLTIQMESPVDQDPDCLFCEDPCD

T2: human ZnT8 R325 (R-form) (Homo sapiens, UniProt Q8IWU4)
T2 construct: The human ZnT8 cDNA insert was further subcloned into a pcDNA5/FRT/TO expression vector; made in house
T2 sequence (Q8IWU4 1-320 isoform Q8IWU4-2): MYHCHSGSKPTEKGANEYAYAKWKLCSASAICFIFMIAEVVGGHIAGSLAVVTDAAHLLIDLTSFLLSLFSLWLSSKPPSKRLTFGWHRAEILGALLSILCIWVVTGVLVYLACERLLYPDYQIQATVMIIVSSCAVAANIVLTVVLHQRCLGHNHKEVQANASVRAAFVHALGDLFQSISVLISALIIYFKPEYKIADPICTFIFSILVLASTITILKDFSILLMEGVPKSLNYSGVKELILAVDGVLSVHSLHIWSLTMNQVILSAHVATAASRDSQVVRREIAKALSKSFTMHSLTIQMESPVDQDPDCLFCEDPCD

T3: human ZnT8 AA-form (H220A, D224A) (Homo sapiens, UniProt Q8IWU4, D224A/H220A)
T3 construct: The human ZnT8 cDNA insert was further subcloned into a pcDNA5/FRT/TO expression vector; made in house
T3 sequence (Q8IWU4 1-320 isoform Q8IWU4-2 H171A/D175A): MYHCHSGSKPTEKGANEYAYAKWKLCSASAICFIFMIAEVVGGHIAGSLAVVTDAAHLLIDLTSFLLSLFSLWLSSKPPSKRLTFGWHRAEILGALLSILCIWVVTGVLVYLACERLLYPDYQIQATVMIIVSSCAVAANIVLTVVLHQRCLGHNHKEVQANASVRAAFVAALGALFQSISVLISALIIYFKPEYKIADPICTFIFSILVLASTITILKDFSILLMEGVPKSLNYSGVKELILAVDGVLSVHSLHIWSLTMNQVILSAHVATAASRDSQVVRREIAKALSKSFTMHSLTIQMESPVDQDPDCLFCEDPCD


Key:
human ZnT8 W325 (W-form) = biological target: T1, human ZnT8 W325 (W-form); assay: Stopped-flow zinc transport kinetics in reconstituted proteoliposomes (Fluozin-3), W325 variant; type: biochemical; details: for effect on zinc transport activity (Vmax), W-form: lipid in reconstituted proteoliposomes, reference level = Vmax of the AA-form; for increase of Vmax, W-form: third anionic phospholipid added to DOPC:DOPE (2:1), giving 2:1:1
Protocol: (§1) 24 hour after induction, early-passage cells (passage number <10) at 90% confluence were scraped on ice and collected in the assay buffer supplemented with complete mini EDTA free protease cocktail tablets as specified by the manufacturer (Sigma). Cell suspension was homogenized by 40 passages through a high-shear fluid processor at 120 psi (Microfluidics), and then the membrane fraction was pelleted by ultracentrifugation at 258k×g for 60 min. The membrane pellet was re-suspended in a solubilization buffer (assay buffer plus 25% glycerol). DDM was added to solubilize the membrane according to the weight of the membrane pellet at a DDM-to-membrane ratio of 1:5 (wt/wt). The membrane crude extract was cleared off debris by ultracentrifugation at 258k×g for 15 min. The supernatant was applied to Talon affinity resins (GE Healthcare) and incubated at 8° C. on a rotary shaker for 45 min. The resin was then minimally washed by solubilization buffer supplemented with 25 mM imidazole, and then the immobilized ZnT8 variant was eluted by increasing the imidazole concentration to 250 mM. The molecular identity of the eluted ZnT8 variant was validated by western blotting using two antibodies to the C-terminal His-tag (Cell signaling Technology, cat. #2365S, catalog number, 1:1000 dilution) and to a linear peptide epitope (Proteintech, cat. #16169-1-AP, 1:500 dilution), respectively. The purity of the eluted proteins was assessed by SDS-PAGE with imperial protein staining (Thermo Scientific). Preformed liposomes with a defined lipid composition as indicated were prepared by mixing stock solutions of lipids in chloroform. The lipid mixture was dried under a stream of nitrogen gas, and traces of chloroform were removed by placing the lipids under vacuum overnight at room temperature. Dried lipids were rehydrated in a Pyrex borosilicate glass tube with assay buffer to a lipid concentration of 50 mg/ml, and then sonicated in a cup-horn sonicator at 100 W for 2 min (cycles of 10 son, 10 s off) in an ice-chilled water bath. The resulting liposome suspension was diluted with assay buffer to a final lipid concentration of 7.5 mg/ml with DDM added at a DDM/lipids ratio of 1:1 (wt/wt). The DDM-liposome mixture was incubated at room temperature on a rotary shaker for ˜3 hours until a gel-like appearance occurred. Reconstitution of ZnT8 variants took place immediately after eluted from Talon resins by mixing a ZnT8 variant, or an equal volume of elution buffer, with DDM-destabilized preformed liposomes at an estimated protein-to-lipid wt/wt ratio of 1:200. The reconstitution mixture was incubated on a rotary shaker at 8° C. for 1 hr, then freshly prepared, methanol-washed polystyrene beads (Bio-Beads, SM-2, Bio-Rad) were added to the reconstitution mixture in a 60:1 wt/wt ratio to DDM. After incubation overnight at 8° C., the resulting proteoliposomes or liposomes (negative control) were separated from the detergent-soaked polystyrene beads, and pelleted by ultracentrifugation (258k×g, 2 hr). […]
(§2) Experiments were performed at 8° C. on a SFM-3000 stopped-flow apparatus (Bio-logic). […] The reactants were excited at 490 nm, and emissions were monitored at 525 nm using a 10 nm bandpass cut-off filter. Kinetic traces were recorded over a time course of 10 seconds with instrument offset and gain kept constant for all the experiments. […]

human ZnT8 R325 (R-form) = biological target: T2, human ZnT8 R325 (R-form); assay: Stopped-flow zinc transport kinetics in reconstituted proteoliposomes (Fluozin-3), R325 variant; type: biochemical; details: for effect on zinc transport activity (Vmax), R-form: lipid in reconstituted proteoliposomes, reference level = Vmax of the AA-form; for increase of Vmax, R-form: third anionic phospholipid added to DOPC:DOPE (2:1), giving 2:1:1
Protocol: as §1, §2

HEK293 cells = assay: Vesicular zinc uptake in real time (Zinpyr-1, 96-well microplate); type: cell-based, human; details: 383 nM free zinc, 1 uM pyrithione, 15° C., induced expression
Protocol: The free zinc concentration in the ADA-EGTA dual buffering system was calculated using maxchelator (maxchelator.stanford.edu). Induced cells were loaded with Zinpry-1, trypsinized, resuspended in an ice-chilled plain uptake buffer with no ZnSO4 added. Cells with the expression of each ZnT8 variant or the empty vector were counted, adjusted to a density of 4×10^6 cells/ml, and dispensed in 50-[…] aliquots to a clear-bottom 96-well microplate (Greiner bio-one). Initial Zinpry-1 fluorescence (F0) was recorded from the bottom on a Flexstation-3 microplate reader (Molecular dynamics), and then zinc-uptakes were initiated by adding 50 ul uptake buffers with 2× free zinc concentrations to each well. The Zinpry-1 fluorescence increases in response to various free zinc concentrations were recorded at 15° C. in the kinetic mode of Flexstation over a time course of 10 min and normalized to Zinpyr-1 loading (F0). The fluorescence responses reached a linear phase in 2 min after the uptake temperature approached equilibrium. The rates of zinc uptake were calculated by linear regression of the Zinpyr-1 signals from 2 to 10 min. All measurements were performed in 12 replicates, and fluorescence readings were obtained by averaging over 8-10 measurements that gave consistent results. Most aberrant measurements occurred in the first and last two columns of the microplate due to pipetting errors.

[1] = biological target: T3, human ZnT8 AA-form (H220A, D224A); assay: Stopped-flow zinc transport kinetics in reconstituted proteoliposomes (Fluozin-3), AA-form; type: biochemical
Protocol: 24 hour after induction, early-passage cells (passage number <10) at 90% confluence were scraped on ice and collected in the assay buffer supplemented with complete mini EDTA free protease cocktail tablets as specified by the manufacturer (Sigma). Cell suspension was homogenized by 40 passages through a high-shear fluid processor at 120 psi (Microfluidics), and then the membrane fraction was pelleted by ultracentrifugation at 258k×g for 60 min. The membrane pellet was re-suspended in a solubilization buffer (assay buffer plus 25% glycerol). DDM was added to solubilize the membrane according to the weight of the membrane pellet at a DDM-to-membrane ratio of 1:5 (wt/wt). The membrane crude extract was cleared off debris by ultracentrifugation at 258k×g for 15 min. The supernatant was applied to Talon affinity resins (GE Healthcare) and incubated at 8° C. on a rotary shaker for 45 min. […] The purity of the eluted proteins was assessed by SDS-PAGE with imperial protein staining (Thermo Scientific). […]
as §2

Molecule | effect on zinc transport activity (Vmax), W-form (human ZnT8 W325 (W-form)) | effect on zinc transport activity (Vmax), R-form (human ZnT8 R325 (R-form)) | increase of Vmax, W-form (human ZnT8 W325 (W-form)) | increase of Vmax, R-form (human ZnT8 R325 (R-form)) | also measured
CCCCCCCC/C=C\CCCCCCCC(=O)OC[C@H](COP(=O)(O)OCCN)OC(=O)CCCCCCC/C=C\CCCCCCCC [DOPE, 1,2-di-(9Z-octadecenoyl)-sn-glycero-3-phosphoethanolamine] | modest effects | progressively reduced the Vmax |  |  | 
CCCCCCCC/C=C\CCCCCCCC(=O)OC[C@H](COP(=O)(O)OCC(O)CO)OC(=O)CCCCCCC/C=C\CCCCCCCC (stereo partly shown) [DOPG] |  |  | 2.0 fold | 6.1 fold | 
CCCCCCCC/C=C\CCCCCCCC(=O)OC[C@H](COP(=O)(O)OC[C@H](N)C(=O)O)OC(=O)CCCCCCC/C=C\CCCCCCCC [DOPS, 1,2-dioleoyl-sn-glycero-3-phospho-L-serine] |  |  | 2.3 fold | 3.5 fold | 
CC(C)CCC[C@@H](C)[C@H]1CC[C@H]2[C@@H]3CC=C4C[C@@H](O)CC[C@]4(C)[C@H]3CC[C@]12C [cholesterol] | below the reference level of the AA-form; also recorded: strongly inhibit | below the reference level of the AA-form; also recorded: strongly inhibit |  |  | 
Lysophosphatidylcholine [LPC] | below the reference level of the AA-form; also recorded: strongly inhibit | below the reference level of the AA-form; also recorded: strongly inhibit |  |  | 
AA-form: His-tagged human ZnT8 with H220A, D224A double mutation of the predicted transport-site (protein, UniProt Q8IWU4 1-369, looked up, variant H220A D224A, His tag, His-tagged human ZnT8 with H220A, D224A double mutation of the predicted transport-site) Proton-coupled zinc …: MEFLERTYLVNDKAAKMYAFTLESVELQQKPVNKDQCPRERPEELESGGMYHCHSGSKPTEKGANEYAYAKWKLCSASAICFIFMIAEVVGGHIAGSLAVVTDAAHLLIDLTSFLLSLFSLWLSSKPPSKRLTFGWHRAEILGALLSILCIWVVTGVLVYLACERLLYPDYQIQATVMIIVSSCAVAANIVLTVVLHQRCLGHNHKEVQANASVRAAFVAALGALFQSISVLISALIIYFKPEYKIADPICTFIFSILVLASTITILKDFSILLMEGVPKSLNYSGVKELILAVDGVLSVHSLHIWSLTMNQVILSAHVATAASRDSQVVRREIAKALSKSFTMHSLTIQMESPVDQDPDCLFCEDPCD |  |  |  |  | rate of vesicular zinc accumulation (HEK293 cells): significantly faster than the basal level of Blk; Km increase compared to the R-form [1]: 24 fold; Vmax/Km decrease compared to the R-form [1]: 59 fold
